Assay results published in ChEMBL document CHEMBL3885861, “Open TG-GATES”.

Species: Rattus norvegicus
Assay: Open TG-GATES - Regimen: Daily Repeat
Type: toxicity, organism-based, Sprague-Dawley
Set-up: regimen Daily Repeat, gender Male, age 6 weeks
Conditions: in vivo, po, 300 mg/kg, route gavage, dose level High; for APTT / Bas / Eos / Fbg / Hb / Ht / Lym / MCH / MCHC / MCV / Mono / Neu / PT / Plat / RBC / Ret / WBC: tissue Blood
[1] = 72 h, tissue Kidney, time 3 day
[2] = 72 h, tissue Plasma, time 3 day

Question: What does the source list for `C[C@]12CCC(=O)C=C1CC[C@@H]1[C@@H]2CC[C@@]2(C)[C@H]1CC[C@]2(C)O` [METHYLTESTOSTERONE]?
Answer: TERMINAL_BW (72 h, time 3 day): 233.2 g; APTT (72 h, time 3 day): 15.7 s; Bas (72 h, time 3 day): 0%; Eos (72 h, time 3 day): 1%; Fbg (72 h, time 3 day): 295.4 mg/dL; Hb (72 h, time 3 day): 13.8 g/dL; Ht (72 h, time 3 day): 39.9%; Lym (72 h, time 3 day): 74.8%; MCH (72 h, time 3 day): 21.8 pg; MCHC (72 h, time 3 day): 34.6%; MCV (72 h, time 3 day): 63.2 fL; Mono (72 h, time 3 day): 2.8%; Neu (72 h, time 3 day): 21%; PT (72 h, time 3 day): 13.4 s; Plat (72 h, time 3 day): 115.4 x10_4/uL; RBC (72 h, time 3 day): 630.6 x10_4/ul; Ret (72 h, time 3 day): 6.1%; WBC (72 h, time 3 day): 71.4 x10_2/uL; KIDNEY_L [1]: 1.1 g; KIDNEY_R [1]: 1.1 g; KIDNEY_TOTAL [1]: 2.2 g; LIVER (72 h, tissue Liver, time 3 day): 12.3 g; A/G [2]: 0.9; ALP [2]: 1988.4 IU/L; ALT [2]: 52.4 IU/L; AST [2]: 72 IU/L; BUN [2]: 14.4 mg/dL; CRE [2]: 0.2 mg/dL; Ca [2]: 11 mg/dL; Cl [2]: 106.2 meq/L; DBIL [2]: 0.028 mg/dL; GLC [2]: 179 mg/dL; IP [2]: 8.4 mg/dL; K [2]: 4.2 meq/L; LDH [2]: 129.6 IU/L; Na [2]: 143.2 meq/L; PL [2]: 110.4 mg/dL; RALB [2]: 2.8 g/dL; TBIL [2]: 0.024 mg/dL; TC [2]: 37.8 mg/dL; TG [2]: 189 mg/dL; TP [2]: 5.8 g/dL; gamma-GTP [2]: 1.2 IU/L; TERMINAL_BW ([…], time 7 day): 255 g; TERMINAL_BW ([…], time 14 day): 299.6 g; TERMINAL_BW ([…], time 28 day): 358.4 g; APTT ([…], time 7 day): 19.5 s; Bas ([…], time 7 day): 0%; Eos ([…], time 7 day): 0.2%; Fbg ([…], time 7 day): 345.8 mg/dL; Hb ([…], time 7 day): 14 g/dL; Ht ([…], time 7 day): 40.4%; Lym ([…], time 7 day): 80%; MCH ([…], time 7 day): 21.6 pg; MCHC ([…], time 7 day): 34.6%; MCV ([…], time 7 day): 62.2 fL; Mono ([…], time 7 day): 3.2%; Neu ([…], time 7 day): 15.4%; PT ([…], time 7 day): 13.3 s; Plat ([…], time 7 day): 121 x10_4/uL; RBC ([…], time 7 day): 650.2 x10_4/ul; Ret ([…], time 7 day): 5.3%; WBC ([…], time 7 day): 65.9 x10_2/uL; APTT ([…], time 14 day): 22.8 s; Bas ([…], time 14 day): 0%; Eos ([…], time 14 day): 0%; Fbg ([…], time 14 day): 327.8 mg/dL; Hb ([…], time 14 day): 15.3 g/dL; Ht ([…], time 14 day): 43.7%; Lym ([…], time 14 day): 70.4%; MCH ([…], time 14 day): 20.5 pg; MCHC ([…], time 14 day): 34.9%; MCV ([…], time 14 day): 58.8 fL; Mono ([…], time 14 day): 3.4%; Neu ([…], time 14 day): 25.2%; PT ([…], time 14 day): 13.5 s; Plat ([…], time 14 day): 118.5 x10_4/uL; RBC ([…], time 14 day): 744.4 x10_4/ul; Ret ([…], time 14 day): 3.2%; WBC ([…], time 14 day): 93.6 x10_2/uL; APTT ([…], time 28 day): 19.9 s; Bas ([…], time 28 day): 0%; Eos ([…], time 28 day): 1%; Fbg ([…], time 28 day): 325.4 mg/dL; Hb ([…], time 28 day): 15.8 g/dL; Ht ([…], time 28 day): 44.3%
